From ChEMBL document CHEMBL4257485, “The critical role of novel benzophenone analogs on tumor growth inhibition targeting angiogenesis and apoptosis” (Medchemcomm, 2018) come the findings set out here.

Broadly, the IC50 is the concentration needed to halve the response being measured. A word on the inhibition: it is the percentage by which the read-out fell short of the control.

Activity calls are given as the source filed them. No cut-off for these calls is given here.

In assay [1] the test system is A549. Briefly: Cytotoxicity against human A549 cells after 48 hrs by trypan blue exclusion assay. The assay is classed as functional, cell-based. The conditions noted are these: A549, 48 h.
Assay [2] relates to A549. As to the kind of experiment: Cytotoxicity against human A549 cells after 48 hrs by MTT assay. The assay is classed as functional, cell-based. The conditions noted are these: A549, 48 h. (Formazan colour is commonly taken as a measure of viable cells.)
In assay [3] the test system is A549. Briefly: Cytotoxicity against human A549 cells after 48 hrs by LDH release assay. The assay is classed as functional, cell-based. The conditions noted are these: A549, 48 h.
Assay [4] deals with HeLa. As to the kind of experiment: Cytotoxicity against human HeLa cells after 48 hrs by trypan blue exclusion assay. Format: functional, cell-based.
The test system of assay [5] is HeLa. As to the kind of experiment: Cytotoxicity against human HeLa cells after 48 hrs by MTT assay. Format: functional, cell-based.
Assay [6] deals with HeLa. As to the kind of experiment: Cytotoxicity against human HeLa cells after 48 hrs by LDH release assay. Format: functional, cell-based.
For assay [7], the system named is MCF7. Briefly: Cytotoxicity against human MCF7 cells after 48 hrs by trypan blue exclusion assay. The assay is classed as functional, cell-based. Particulars: MCF7, 48 h.
Assay [8] concerns MCF7. As to the kind of experiment: Cytotoxicity against human MCF7 cells after 48 hrs by MTT assay. The assay is classed as functional, cell-based. Particulars: MCF7, 48 h.
The subject of assay [9] is MCF7. As to the kind of experiment: Cytotoxicity against human MCF7 cells after 48 hrs by LDH release assay. The assay is classed as functional, cell-based. Particulars: MCF7, 48 h. In general terms: LDH in the medium is a marker of cell lysis.
Assay [10] has as its system NIH3T3. Briefly: Cytotoxicity against mouse NIH/3T3 cells after 48 hrs by trypan blue exclusion assay. The assay is classed as cell-based. The conditions noted are these: NIH3T3, 48 h.
The subject of assay [11] is NIH3T3. As to the kind of experiment: Cytotoxicity against mouse NIH/3T3 cells after 48 hrs by MTT assay. The assay is classed as cell-based. Particulars: NIH3T3, 48 h.
The test system of assay [12] is NIH3T3. Briefly: Cytotoxicity against mouse NIH/3T3 cells after 48 hrs by LDH release assay. The assay is classed as cell-based. Particulars: NIH3T3, 48 h.
The subject of assay [13] is A549. As to the kind of experiment: Inhibition of colony formation of human A549 cells at 25 to 50 uM pretreated for 6 hrs followed by subsequent incubation for 12 days by crystal violet staining-based assay. The assay is classed as functional, cell-based.
Assay [14] relates to A549. Briefly: Inhibition of migration of human A549 cells at 25 uM after 48 hrs by scratch wound assay relative to control. Format: functional. The conditions noted are these: A549, 48 h.
In assay [15] the test system is A549. As to the kind of experiment: Inhibition of migration of human A549 cells at 50 uM after 48 hrs by scratch wound assay relative to control. Format: functional. The conditions noted are these: A549, 48 h.
The test system of assay [16] is Chorioallantoic membrane. Briefly: In vivo angioprotective activity in chicken CAM assessed as inhibition of recombinant VEGF165-induced neovuscularization at 1 mg/ml after 72 hrs. The assay is classed as functional, Gallus gallus.
In assay [17] the test system is Chorioallantoic membrane. Briefly: Ex vivo angioprotective activity in chicken CAM assessed as inhibition of recombinant VEGF165-induced neovuscularization at 1 mg/ml after 72 hrs. The assay is classed as functional, tissue-based. Particulars: Gallus gallus.
Assay [18] deals with Chorioallantoic membrane. Briefly: In vivo angioprotective activity in chicken CAM assessed as decrease in recombinant VEGF165-induced total vessel length at 1 mg/ml after 72 hrs. The assay is classed as functional, Gallus gallus. On the set-up: scale not given: the % may be the effect or the level left.
Assay [19] relates to Chorioallantoic membrane. Briefly: Ex vivo angioprotective activity in chicken CAM assessed as decrease in recombinant VEGF165-induced total vessel length at 1 mg/ml after 72 hrs. Format: functional, tissue-based. Also on record: scale not given: the % may be the effect or the level left. Particulars: Gallus gallus.
Assay [20] has as its system A549. Briefly: Antitumor activity against human A549 cells xenografted in chicken CAM assessed as reduction in tumor progression at 1 mg/ml measured on day 12 post fertilization by hematoxylin and eosin staining-based assay relative to control. The assay is classed as functional. Background: In xenograft studies the graft and the host belong to different species.
The subject of assay [21] is A549. As to the kind of experiment: Antiangiogenic activity in human A549 cells xenografted in chicken CAM assessed as reduction in recombinant VEGF165-induced MVD/HPF at 1 mg/ml measured on day 12 post fertilization by hematoxylin and eosin staining-based assay relative to control. The assay is classed as functional. On the set-up: scale not given: the % may be the effect or the level left.

The subject of assay [22] is A549. As to the kind of experiment: Antiangiogenic activity in human A549 cells xenografted in chicken CAM assessed as reduction in recombinant VEGF165-induced MVD/HPF measured on day 12 post fertilization by hematoxylin and eosin staining-based assay. The assay is classed as functional, cell-based.
For assay [23], the system named is A549. Briefly: Induction of morphological changes in human A549 cells assessed as irregular shape by Giemsa staining-based microscopic method. The assay is classed as functional, cell-based.
For assay [24], the system named is A549. Briefly: Induction of morphological changes in human A549 cells assessed as membrane blebbing by Giemsa staining-based microscopic method. The assay is classed as functional, cell-based.
For assay [25], the system named is A549. Briefly: Induction of morphological changes in human A549 cells assessed as formation of apoptotic bodies by Giemsa staining-based microscopic method. The assay is classed as functional, cell-based.
For a further assay, the species on record is Homo sapiens. As to the kind of experiment: Induction of endonuclease activity in cytosolic fraction of human A549 cells assessed as increase in DNA lysis zone at 85 uM by SYBR green dye-based agarose gel electrophoresis.
Assay [26] relates to A549. Briefly: Downregulation of VEGF expression in human A549 cells by immunoblot method. Format: functional, cell-based.
Assay [27] concerns Enterobacteria phage lambda. Briefly: Induction of lambda phage DNA fragmentation by agarose gel electrophoresis.
Assay [28] deals with A549. Briefly: Induction of apoptosis in human A549 cells assessed as early apoptotic cells at IC50 after 12 to 15 hrs by annexin-V-FITC/propidium iodide staining-based flow cytometric method (reference value: 1.65%). Format: functional.
The subject of assay [29] is A549. Briefly: Induction of apoptosis in human A549 cells assessed as late apoptotic cells at IC50 after 12 to 15 hrs by annexin-V-FITC/propidium iodide staining-based flow cytometric method (reference value: 14.3%). Format: functional.
Assay [30] relates to A549. Briefly: Induction of apoptosis in human A549 cells assessed as necrotic cells at IC50 after 12 to 15 hrs by annexin-V-FITC/propidium iodide staining-based flow cytometric method (reference value: 10.2%). The assay is classed as functional.
In assay [31] the test system is A549. Briefly: Induction of apoptosis in human A549 cells assessed as live cells at IC50 after 12 to 15 hrs by annexin-V-FITC/propidium iodide staining-based flow cytometric method (reference value: 73.8%). The assay is classed as functional.
The test system of assay [32] is A549. As to the kind of experiment: Induction of apoptosis in human A549 cells assessed as caspase-3 activation by immunoblot method. The assay is classed as functional, cell-based.
The test system of assay [33] is A549. Briefly: Cell cycle arrest in human A549 cells assessed as accumulation at sub-G1 phase at IC50 after 16 hrs by propidium iodide staining-based flow cytometric method (reference value: 0.69%). Format: functional.
Assay [34] concerns A549. As to the kind of experiment: Cell cycle arrest in human A549 cells assessed as accumulation at G0/G1 phase at IC50 after 16 hrs by propidium iodide staining-based flow cytometric method (reference value: 70.8%). Format: functional.
Assay [35] deals with A549. As to the kind of experiment: Cell cycle arrest in human A549 cells assessed as accumulation at S phase at IC50 after 16 hrs by propidium iodide staining-based flow cytometric method (reference value: 24.8%). The assay is classed as functional.
The subject of assay [36] is A549. Briefly: Cell cycle arrest in human A549 cells assessed as accumulation at G2/M phase at IC50 after 16 hrs by propidium iodide staining-based flow cytometric method (reference value: 3.44%). Format: functional.
Assay [37] relates to A549. Briefly: Cell cycle arrest in human A549 cells assessed as decrease in cell levels at G2/M phase at IC50 after 24 to 48 hrs by propidium iodide staining-based flow cytometric method. Format: functional.
For assay [38], the system named is A549. Briefly: Cell cycle arrest in human A549 cells assessed as increase in accumulation at sub-G0 phase at IC50 after 48 hrs by propidium iodide staining-based flow cytometric method. Format: functional.

Regarding `Cc1ccc(C(=O)c2cc(F)c(OCC(=O)NNC(=O)c3cn(C)cn3)c(Cl)c2)cc1`, the IC50 with A549 [1] amounted to 9.6 µM; in the assay on A549 [2], 8.8 µM; in the assay on A549 [3], 9.1 µM; in the assay with HeLa [4] it was 10.2 µM; with HeLa [5] it was 9.9 µM; in the assay on HeLa [6], 10.4 µM. The IC50 came out at 9.5 µM in the assay on MCF7 [7]; 9.8 µM in the assay on MCF7 [8]; 9.4 µM with MCF7 [9]; 93.8 µM in the assay on NIH3T3 [10]; 94.2 µM with NIH3T3 [11]; 94.9 µM in the assay with NIH3T3 [12]. In addition, the inhibition entry with A549 [13] is “Active”. Further, the inhibition at 25 µM with A549 [14] turned out to be 15.6%. In the assay on A549 [15], this molecule gave an inhibition at 50 µM of 78.8%. Also, the “inhibition (INH)” value in the assay on Chorioallantoic membrane [16] is reported as 24%. Moreover, the inhibition in the assay on Chorioallantoic membrane [17] stood at 26%. Moreover, the Activity is 85% in the assay on Chorioallantoic membrane [18]; 85% with Chorioallantoic membrane [19]; 86.2% in the assay with A549 [21]; “Dose-dependent effect” in the assay on A549 [22]; 0.6% with A549 [28]; 48.4% in the assay on A549 [29]. The Activity came out at 17.4% with A549 [30]; 33.5% in the assay on A549 [31]; 5.83% with A549 [33]; 75.9% in the assay with A549 [34]; 16.7% in the assay on A549 [35]; 1.62% in the assay with A549 [36]. In addition, the “fold change (FC)” value in the assay with A549 [20] came to 1.7. The result (in the assay on A549 [23]; in the assay with A549 [24]; in the assay on A549 [25]; in the assay listed under Homo sapiens; in the assay on A549 [26]; in [27]) was Active. For the same molecule, the outcome with A549 [32], in the assay on A549 [37] and in the assay with A549 [38] was Active.

Turning to `Cn1cnc(C(=O)NNC(=O)COc2c(F)cc(C(=O)c3ccc(Cl)cc3)cc2Cl)c1`, the IC50 in the assay with A549 [1] is 47.3 µM; with A549 [2], 49.1 µM; in the assay on A549 [3], 45.8 µM; with HeLa [4], 51.6 µM; with HeLa [6], 54.5 µM; in the assay with MCF7 [7], 47.3 µM. The IC50 in the assay on MCF7 [8] was 43.1 µM; in the assay on MCF7 [9], 44.4 µM; in the assay on NIH3T3 [10] it was 90.9 µM; with NIH3T3 [11], 87.8 µM; in the assay with NIH3T3 [12], 89.3 µM.

On to `Cn1cnc(C(=O)NNC(=O)COc2c(F)cc(C(=O)c3ccc(F)cc3)cc2Cl)c1`, for which the IC50 in the assay with A549 [1] was 39.6 µM; with A549 [2], 40.1 µM; with A549 [3], 40.7 µM; with HeLa [4], 39.9 µM; in the assay with HeLa [5], 42.2 µM; in the assay on HeLa [6], 40.9 µM. For the same molecule, the 50% inhibitory concentration (IC50) with MCF7 [7] amounted to 44.6 µM; with MCF7 [8], 45.1 µM; with MCF7 [9] it was 44.6 µM; with NIH3T3 [10], 94.2 µM; in the assay with NIH3T3 [11], 89.2 µM; in the assay on NIH3T3 [12], 94.4 µM.

Turning to `O=C(COc1c(F)cc(C(=O)c2ccc(Cl)cc2)cc1Cl)NNC(=O)c1ccc(=O)oc1`, the IC50 in the assay with A549 [1] was found to be 86.7 µM; in the assay with A549 [2], 88.8 µM; in the assay with A549 [3], 84.9 µM; in the assay with HeLa [4], 89.6 µM; in the assay on HeLa [5], 87.1 µM; in the assay on HeLa [6], 85.1 µM. Besides, the IC50 worked out at 90.6 µM in the assay with MCF7 [7]; 86.2 µM in the assay with MCF7 [8]; 83.8 µM with MCF7 [9]; 79.3 µM in the assay with NIH3T3 [10]; 77.6 µM in the assay on NIH3T3 [11]; 78.6 µM in the assay with NIH3T3 [12].

On to `O=C(COc1c(F)cc(C(=O)c2ccc(F)cc2)cc1Cl)NNC(=O)c1ccc(=O)oc1`, for which the IC50 amounted to 56.7 µM with A549 [1]; 58.8 µM in the assay with A549 [2]; 60.2 µM with A549 [3]; 59.2 µM with HeLa [4]; 59.9 µM in the assay with HeLa [5]; 60.1 µM in the assay on HeLa [6]. Also, the IC50 in the assay with MCF7 [7] amounted to 62.2 µM; in the assay with MCF7 [8] it was 63.2 µM; in the assay with MCF7 [9], 61.1 µM; in the assay on NIH3T3 [10] it was 85.4 µM; in the assay on NIH3T3 [11] it was 87.8 µM; in the assay on NIH3T3 [12], 89.8 µM.
